Assay results reported in paper PMC6891756, “Synthesis and Biological Evaluation of Novel Aminochalcones as Potential Anticancer and Antimicrobial Agents” (Molecules, 2019).
In brackets after ≈: the same amount, converted by molar mass. Read-outs that look alike come from different tables or passages of the source.

Experiments:
HT-29 cell line [1] = test system: HT-29 cell line; set-up: method as in doi:10.1007/s00044-011-9549-9; details: read-out: IC50 HT-29 (literature); cited from earlier work
LS180 = assay: SRB antiproliferative assay, LS180; type: cell-based, human; details: 1–100 µg·mL^−1, ND = not detected in the tested concentration range; for IC50: Homo sapiens, LS180, 48 h
Method: (§1) Anticancer activity was evaluated using the sulforhodamine B assay (SRB) on four different human colon cancer cell lines: HT-29, LS180, LoVo and LoVo/DX and green monkey kidney fibroblasts COS7 (ATCC, Manassas, VA, USA). Cell lines HT-29 and COS7 were cultured in α-MEM medium (IIET PAS, Wrocław, Poland), LS180 in OptiMEM medium (IIET PAS), LoVo and LoVo/DX in mixture of α-MEM and OptiMEM medium (1:1 (v:v)). Each culture medium was supplemented with 10% fetal bovine serum, 2 mM glutamine, 100 μg·mL^−1 penicillin, 100 μg·mL^−1 streptomycin and 0.25 μg·mL^−1 amphotericin (all supplements purchased from Gibco (Paisley, UK). Cells were incubated at 37 °C, 5% CO2 in HeraCELL 150i incubator (Thermo Fisher Scientific, Waltham, MA, USA).
(§2) For the SRB assay, cells were seeded onto 96-well plates (Sarstedt, Nümbrecht, Germany) at a density of 5·10^3/well and cultured overnight as described above. Then, the growth medium was gently removed and replaced with fresh medium, supplemented with aminochalcone derivatives in the concentration ranging from 1 µg·mL^−1 to 100 µg·mL^−1. All stock solutions were prepared in DMSO at a concentration of 10 mg·mL^−1. Cells were incubated for 48 h and then the SRB assay was performed as described previously. Each experiment was performed in quadruplicate. The final results were reported as the IC50 values calculated for three independent experiments. Cisplatin (Acros Organics, Waltham, MA, USA) and doxorubicin (Fisher BioReagents, Waltham, MA, USA) were used as positive controls of the test.

HT-29 = assay: SRB antiproliferative assay, HT-29; type: cell-based, human; details: for IC50: Homo sapiens, HT-29
Method: as §1, §2

LoVo = assay: SRB antiproliferative assay, LoVo; type: cell-based, human; details: 48 h, 1–100 µg·mL^−1, ND = not detected in the tested concentration range; for IC50: Homo sapiens, LoVo
Method: as §1, §2

LoVo/DX = assay: SRB antiproliferative assay, LoVo/DX; type: cell-based, human; details: 48 h, 1–100 µg·mL^−1, ND = not detected in the tested concentration range; for IC50: Homo sapiens, LoVo/DX
Method: as §1, §2

[2] = test system: green monkey kidney fibroblasts COS7; assay: SRB assay, normal fibroblasts COS7; type: cell-based; details: 48 h, normal cell line, ND = not detected in the tested concentration range
Method: as §1, §2

[3] = test system: Staphylococcus aureus DSM799; assay: MIC evaluation (broth method), S. aureus; type: cell-based; details: 48–72 h, read-out: Minimal inhibitory concentration S. aureus
Method: (§3) Sterile 96-well microtiter plates (Sarstedt) with nutrient broth (for bacteria) (Biocorp) or YM medium (for yeast and filamentous fungi) were inoculated with a standardized cell suspension of bacteria and yeast or fungal spores of 10^5 cell·mL^−1, and supplemented with aminochalcones dissolved in DMSO. […] All analysis were conducted in triplicates. The plates were incubated at 30 °C (bacteria and yeast) or 25 °C (filamentous fungi) for 48–72 h. The results were measured with the Spark® Multimode Microplate Reader (Tecan, Männedorf, Switzerland) at a 560 nm wavelength. The minimal inhibitory concentration was defined as the lowest concentration of a tested compound that completely restricted the growth of the microorganism. In order to verify the obtained results, microbial cultures subjected to each concentration of aminochalcone were inoculated onto nutrient agar or YM plates and incubated as described above. The lack of growth on agar plate was a confirmation of the MIC of the tested compound. The resulting MIC values were compared with the reference substances: oxytetracycline (against bacteria), cycloheximide (against yeast) and nystatin (against fungi) (Sigma Aldrich).

[4] = test system: human breast cancer cell line T47D; set-up: method as in earlier work; details: cited from earlier work
[5] = test system: Staphylococcus aureus DSM799; assay: Microbial growth curve screening, S. aureus; type: cell-based; details: 0.1% (w/v), OD at 560 nm, control 1.67
Method: (§4) The antimicrobial screening tests were performed on two strains of bacteria: E. coli ATCC10536 and S. aureus DSM799, strain of yeast C. albicans DSM1386 and three strains of fungi: F. linii KB-F1, A. alternata CBS1526 and A. niger DSM1957. All microorganisms were obtained from the collection of the Faculty of Biotechnology and Food Microbiology, Wrocław University of Environmental and Life Sciences. The bacteria were cultured in nutrient broth (Biocorp, Warsaw, Poland), yeast and fungi in YM medium (3 g yeast extract, 3 g malt extract, 5 g bacteriological peptone and 10 g of glucose dissolved in 1 L of distilled water). The tests were carried out in 100-well microtiter plates. To each well 280 μL of culture medium, 10 μL of microorganism suspension and 10 μL of aminochalcone (1–18) dissolved in dimethyl sulfoxide (3% (w/v)) were added. The final concentration of the tested compound (1–18) was 0.1% (w/v). Each experiment were performed in 3 replications. The optical density of the cell suspension was measured on Bioscreen C (Automated Growth Curve Analysis System Lab System, Vantaa, Finland) at 560 nm automatically, at regular intervals of 30 min for 2–3 days. Cell cultures were maintained at 28 °C on a continuous shaker. To prepare the growth curves for each strain, the mean values of the absorbance in a function of time were used. The resulting antimicrobial activity was expressed as the increase of optical density (ΔOD) and was compared to that of the control cultures in the medium supplemented with dimethyl sulfoxide and also with reference substances: oxytetracycline (against bacteria), cycloheximide (against yeast) and nystatin (against fungi) (Sigma Aldrich).

[6] = test system: all tested microorganisms; assay: MIC evaluation, all tested strains (pooled statement); type: cell-based; details: read-out: MIC values against all tested microorganisms
Method: as §3

Candida albicans DSM1386 [7] = assay: MIC evaluation (broth method), C. albicans; type: cell-based; details: DSM1386, broth method, 48–72 h, read-out: Minimal inhibitory concentration C. albicans
Method: as §3

[8] = test system: Escherichia coli ATCC10536; assay: Microbial growth curve screening, E. coli; type: cell-based; details: 0.1% (w/v); for ∆OD E. coli: OD at 560 nm, control 1.61
Method: as §4

Fusarium linii KB-F1 [9] = assay: Microbial growth curve screening, F. linii; type: cell-based; details: 0.1% (w/v); for ∆OD F. linii: OD at 560 nm, control 1.95
Method: as §4

[10] = test system: Aspergillus niger DSM1957; assay: MIC evaluation (broth method), A. niger; type: cell-based; details: Aspergillus niger, DSM1957, 48–72 h, read-out: Minimal inhibitory concentration A. niger
Method: as §3

[11] = test system: all tested microorganisms; assay: Growth curve screening, all tested microorganisms (pooled statement); type: cell-based; details: 0.1% (w/v)
Method: as §4, with “To each well 280 μL of culture medium, 10 μL of microorganism suspension and 10 μL of aminochalcone (1–18) dissolved in dimethyl sulfoxide (3% (w/v)) were added. The final concentration of the tested compound (1–18) was 0.1% (w/v). Each experiment were performed in 3 replications.” left out, “Cell cultures were maintained at 28 °C on a continuous shaker.” left out

[12] = test system: Escherichia coli ATCC10536; assay: MIC evaluation (broth method), E. coli; type: cell-based; details: 48–72 h, read-out: Minimal inhibitory concentration E. coli
Method: as §3

Fusarium linii KB-F1 [13] = assay: MIC evaluation (broth method), F. linii; type: cell-based; details: Fusarium, KBF1, 48–72 h, read-out: Minimal inhibitory concentration F. linii
Method: as §3

[14] = test system: Alternaria alternata CBS1526; assay: Microbial growth curve screening, A. alternata; type: cell-based; details: 0.1% (w/v), OD at 560 nm, control 1.86
Method: as §4

[15] = test system: Alternaria alternata CBS1526; assay: MIC evaluation (broth method), A. alternata; type: cell-based; details: Alternaria alternata, CBS1526, 48–72 h, read-out: Minimal inhibitory concentration A. alternata
Method: as §3

[16] = SRB assay, normal fibroblasts COS7; type: cell-based, green monkey; details: green monkey, COS7 kidney fibroblasts (normal cell line), ND = not detected in the tested concentration range
Method: as §1, §2

[17] = test system: canine malignant histiocytic cell line (DH82); set-up: method as in PMID 28738308; details: read-out: IC50 DH82 proliferation (literature); cited from earlier work
Candida albicans DSM1386 [18] = assay: Microbial growth curve screening, C. albicans; type: cell-based; details: 0.1% (w/v)
Method: as §4

HT-29 cell line [19] = test system: HT-29 cell line; set-up: method as in PMID 24675137; details: cited from earlier work
[20] = SRB, 48 h, 1–100 µg·mL^−1, ND = not detected in the tested concentration range

Compound	MIC [3]	∆OD S. aureus [5]	∆OD E. coli [8]	IC50 (LS180)	IC50 (HT-29; [20])	∆OD F. linii (Fusarium linii KB-F1 [9])	MIC [10]	IC50 (LoVo)	IC50 (LoVo/DX)	∆OD A. alternata [14]	MIC [15]	IC50 at 48 h [16]	further results
Nc1ccc(C(=O)/C=C/c2ccccc2Cl)cc1 [4′-amino-2-chlorochalcone]	–	–	–	–	–	–	–	–	–	–	–	–	IC50 (HT-29 cell line [1]): 26.2 µM
N.N.[Cl][Pt][Cl] [Compound 19, Cisplatin, reference compound]	–	–	–	–	–	–	–	–	–	–	–	–	IC50 LS180 (LS180; 48 h): 1.49 ± 0.13 µg/mL; IC50 HT-29 (HT-29; [20]): 16.73 ± 0.58 µg/mL; IC50 LoVo (LoVo): 2.09 ± 0.12 µg/mL; IC50 LoVo/DX (LoVo/DX): 2.03 ± 0.17 µg/mL; IC50 COS7 [2]: 3.86 ± 0.62 µg/mL
Nc1ccc(C(=O)/C=C/c2ccccc2)cc1 [Compound 3, 4′-Aminochalcone]	0.25 µg/mL (≈ 1.12 µM)	0.0	0.0	4.68 ± 0.09 µg/mL (≈ 21 µM)	1.98 ± 0.18 µg/mL (≈ 8.87 µM)	0	0.5 µg/mL (≈ 2.24 µM)	2.84 ± 0.09 µg/mL (≈ 12.7 µM)	2.26 ± 0.05 µg/mL (≈ 10.1 µM)	0.0	0.5 µg/mL (≈ 2.24 µM)	3.85 ± 0.28 µg/mL (≈ 17.2 µM)	IC50 T47D (literature) [4]: 5.28 µg/mL (≈ 23.6 µM); MIC [6]: 0.25 to 0.5 µg/mL (≈ 1.12 to 2.24 µM); MIC (Candida albicans DSM1386 [7]): 0.5 µg/mL (≈ 2.24 µM); growth inhibition of all tested microorganisms [11]: complete inhibition of the growth; MIC [12]: 0.5 µg/mL (≈ 2.24 µM); MIC (Fusarium linii KB-F1 [13]): 0.25 µg/mL (≈ 1.12 µM)
Nc1ccc(C(=O)/C=C/c2ccc(F)cc2)cc1 [4′-amino-4-fluorochalcone]	–	–	–	–	–	–	–	–	–	–	–	–	IC50 [17]: 34.4 µM
Nc1ccccc1C(=O)/C=C/c1ccccc1 [Compound 1, 2′-Aminochalcone]	0.25 µg/mL (≈ 1.12 µM)	0.0	0.12	2.06 ± 0.18 µg/mL (≈ 9.23 µM)	1.43 ± 0.16 µg/mL (≈ 6.4 µM)	0.73	0.125 µg/mL (≈ 0.56 µM)	1.56 ± 0.04 µg/mL (≈ 6.99 µM)	1.43 ± 0.02 µg/mL (≈ 6.4 µM)	0.0	1 µg/mL (≈ 4.48 µM)	2.64 ± 0.47 µg/mL (≈ 11.8 µM)	∆OD C. albicans (Candida albicans DSM1386 [18]; OD at 560 nm, control 1.58): 0.14; Lag-phase C. albicans (Candida albicans DSM1386 [18]; control 3.0 h): 24.5 h; Lag-phase E. coli ([8]; control 4.0 h): 10.0 h; times higher activity than cisplatin, HT-29 (HT-29; ratio of IC50 values vs cisplatin (19)): ~12 times; Lag-phase F. linii (Fusarium linii KB-F1 [9]; control 13.5 h): 18.5 h; IC50 HT-29 (literature) (HT-29 cell line [19]): 0.98 µg/mL (≈ 4.39 µM); IC50 (HT-29 cell line [19]; read-out: IC50 HT-29 (literature)): 4.39 µM
